The subject of data set [1] is PC-3 (human prostate cancer). As to the kind of experiment: XTT cell growth assay, PC-3. The format is cell-based. As to conditions: PC-3 cells; 5 to 25 μM; 24 and 48 hours incubation. As to the method: (§1) The tumors cell lines used in this study included PC-3 (human prostate cancer), WM-266-4 cell (human metastatic melanoma), MDA-MB 231 (human breast cancer) and A172 (glioblastoma). […] The benign fibroblasts were tolerable to this conjugate, accentuating its potential as anticancer candidate. At the end of the culture period, cell growth was estimated by XTT assay. After 4 hours incubation of the cells with the XTT reagent, optical density (OD) of the reduced XTT product was then measured at 480 and 680 nm. Percentage of growth inhibition by a test compound was calculated by comparison of the treated culture versus a control culture (free of any compound). The result shown for each concentration point represents the mean+/−standard error calculated from 3 different experiments. In each experiment the compounds were tested in triplicates.
On the technique in general: Tetrazolium assays rely on reduction of a dye to a coloured formazan, in cell work by metabolically active cells.

Data set [2] concerns WM-266-4 cell (human metastatic melanoma). As to the kind of experiment: XTT cell growth assay, WM-266-4. It is filed as cell-based. Particulars: WM-266-4 cells; 5 to 25 μM; 24 and 48 hours incubation. As to the method:
as §1

The test system of data set [3] is MDA-MB 231 (human breast cancer). As to the kind of experiment: XTT cell growth assay, MDA-MB 231. It is filed as cell-based. As to conditions: MDA-MB 231 cells; 5 to 25 μM; 24 hours incubation (FIGS. 1E, 1F). As to the method:
as §1

Data set [4] relates to A172 (glioblastoma). The data set can be described thus: XTT cell growth assay, A172. As to conditions: A172 cells; 5 to 25 μM. It is filed as cell-based. As to the method:
as §1

Data set [5] relates to benign fibroblasts. The data set can be described thus: In vitro cytotoxicity on benign fibroblasts. It is filed as cell-based. As to the method: as §1
In data set [6] the test system is primary fibroblast (FB) cells. As to the kind of experiment: Annexin V-FITC/PI flow cytometry detection of apoptotic/necrotic stages, fibroblasts. The format is cell-based. As to conditions: 10 μM, compared to cancer cells. As to the method: Detection of apoptotic/necrotic stages of tumor cells was examined by Annexin V-FITC/PI apoptosis detection kit (MEBCYTO). Viable cells are negative for staining of either Annexin V or PI. Early apoptotic stage indicated with positive Annexin V and negative PI, whereas late-apoptotic and necrotic stages characterized by high PI signal.
FIGS. 3A-C present flow cytometry analysis of fibroblast cells treated with 10 μM of chimera 358 for 2 hours (FIG. 3A), 4 hours (FIG. 3B) and 8 hours (FIG. 3C), showing detection of apoptotic/necrotic stages of the cells.
(In general: A flow cytometer gives signals particle by particle.)

For data set [7], the system named is WM-266.4 human melanoma xenograft. The data set can be described thus: Experiment 1: human melanoma model mice, daily IP injection for 7 days. It is filed as in vivo. As to the method:
(§2) In one experiment (Experiment 1), 14 human melanoma model mice (immune-deficient xenograft) were treated daily for 7 days by IP injection with of Chimera 358 followed by 2 days of observation according to the following groups: 4 control mice treated with saline, 5 mice treated with 25 mg and 5 mice treated with 10 mg.

The test system is the same in data set [8]. As to the kind of experiment: Experiment 2: human melanoma model mice, IP injection 3 times a week. It is filed as in vivo. As to conditions: for WM-266.4 cell proliferation (tumor size) in vivo: IP 3 times a week. The protocol: (§3) In another experiment (Experiment 2), 13 human melanoma model mice were treated 3 times a week by IP injection with of Chimera 358 followed by 2 days of observation according to the following groups: 3 control mice received saline, 5 mice with 5 mg and 5 mice with 10 mg. The treatment was started two weeks after grafting, when tumor development has started.

A short description of data set [9]: Body weight monitoring, Experiment 1. As to conditions: 25 mg group; IP daily for 7 days. The format is in vivo, mice. As to the method: as §2
FIG. 6 presents the results of the body weight monitoring of 14 mice that undergone the treatment described in Experiment 1.

The nature of data set [10]: Body weight monitoring, Experiment 2. The format is in vivo, mice. As to conditions: 5 mg group; IP 3 times a week. The protocol: as §3
FIG. 7 presents the results of the body weight monitoring of 13 mice that undergone the treatment described in Experiment 2.

Molecules are shown by their SMILES. Entries after “also recorded” stand apart in the source; their conditions may differ.

With `CN(C)CCN1C(=O)c2cccc3cc(NC(=O)CCCc4ccc(N(CCCl)CCCl)cc4)cc(c23)C1=O` [Chimera 358, 4-(4-(bis(2-chloroethyl)amino)phenyl)-N-(2-(2-(dimethylamino)ethyl)-1,3-dioxo-2,3-dihydro-1H-benzo[de]isoquinolin-5-yl)butanamide], the “inhibition of cancer cell growth / cell viability (XTT)” value in data set [1], in data set [2] and in [3] was “remarkable inhibition of cancer cell growth; also recorded: notable cell toxicity” in each case. Besides, the “inhibition of cancer cell growth (XTT)” value in [4] is “remarkable inhibition of cancer cell growth”. Also, in [5], the “effect on benign fibroblasts” value is “tolerable”. In data set [6], the “cell death (apoptotic/necrotic stages)” value is “moderate”. The survival result is recorded as “one mouse” in data set [7] (10 mg group (5 mice), IP daily for 7 days) and “one mouse” in data set [8] (10 mg group (5 mice), IP three times weekly). The “WM-266.4 cell proliferation (tumor size) in vivo” value in data set [7] (10 mg group, after four weeks of the treatment) is “notable decrease in tumor size”; in [7] (mice receiving the treatment (25 mg, 10 mg) versus saline control), “grew to a much lesser extent”; in data set [8] (5 mg group) it was “kept growing”; in data set [8] (10 mg group), “grew to a much lesser extent”. In addition, the figures for the body weight entry in [9] and in [10] were “loss of body weight” and “maintained their body weight”, respectively.
